Source: ChEMBL document CHEMBL4808236, “New phorbol ester derivatives as potent anti-HIV agents” (Bioorg Med Chem Lett, 2021)

Tests used:
A549 = assay: Antiproliferative activity against human A549 cells assessed as reduction in cell viability measured after 72 hrs by SRB assay; conditions: A549, 72 h
MDA-MB-231 = assay: Antiproliferative activity against human MDA-MB-231 cells assessed as reduction in cell viability measured after 72 hrs by SRB assay; format: functional, cell-based; conditions: MDA-MB-231, 72 h
KB = assay: Antiproliferative activity against human KB cells assessed as reduction in cell viability measured after 72 hrs by SRB assay; format: functional, cell-based
[1] = Antiproliferative activity against human KB-VIN cells assessed as reduction in cell viability after 72 hrs by SRB assay; format: functional, cell-based; conditions: KBVIN
MCF7 = assay: Antiproliferative activity against human MCF7 cells assessed as reduction in cell viability measured after 72 hrs by SRB assay; format: functional, cell-based; conditions: MCF7, 72 h
[2] = test system: Human immunodeficiency virus 1; assay: Antiviral activity against HIV-1 NL4-3 infected in human MT4 cells assessed as reduction in p24 production treated at 48 hrs post-infection and measured on day 4 post-viral infection by ELISA; format: functional, organism-based; conditions: Human immunodeficiency virus 1, NL4-3, MT4
MT4 = assay: Cytotoxicity against human MT4 cells assessed as reduction in cell viability by CellTiter-Glo luminescence assay; format: cell-based

## CC(=O)O[C@@H]1[C@@H](C)[C@@]2(O)[C@@H](C=C(CO)C[C@]3(O)C(=O)C(C)=C[C@@H]23)[C@@H]2C(C)(C)[C@]12OC(C)=O
A549
  IC50: 7.49 µM
MDA-MB-231
  IC50: 8.91 µM
KB
  IC50: > 10 µM
[1]
  IC50: > 10 µM
MCF7
  IC50: > 10 µM
[2]
  IC50: 1.36 µM
MT4
  CC75: > 10 µM

## CC(=O)OCC1=C[C@H]2[C@@H]3C(C)(C)[C@]3(OC(C)=O)[C@H](O)[C@@H](C)[C@]2(O)[C@@H]2C=C(C)C(=O)[C@@]2(O)C1
MT4
  CC75: > 5 µM

## CC(=O)OCC1=C[C@H]2[C@@H]3C(C)(C)[C@]3(OC(C)=O)[C@H](OC(C)=O)[C@@H](C)[C@]2(O)[C@@H]2C=C(C)C(=O)[C@@]2(O)C1
A549
  IC50: > 10 µM
MDA-MB-231
  IC50: > 10 µM
KB
  IC50: > 10 µM
[1]
  IC50: > 10 µM
MCF7
  IC50: > 10 µM
[2]
  IC50: > 10 µM
MT4
  CC75: > 5 µM

## CC/C=C/C/C=C/C/C=C/C/C=C/C/C=C/CCCC(=O)OCC1=C[C@H]2[C@@H]3C(C)(C)[C@]3(OC(=O)CCC/C=C/C/C=C/C/C=C/C/C=C/C/C=C/CC)[C@H](O)[C@@H](C)[C@]2(O)[C@@H]2C=C(C)C(=O)[C@@]2(O)C1
A549
  IC50: > 10 µM
MDA-MB-231
  IC50: > 10 µM
KB
  IC50: > 10 µM
[1]
  IC50: > 10 µM
MCF7
  IC50: > 10 µM
[2]
  IC50: 2.23 µM
MT4
  CC75: > 5 µM

## CCCC(=O)OCC1=C[C@H]2[C@@H]3C(C)(C)[C@]3(OC(=O)CCC)[C@H](OC(=O)/C=C/c3ccc(OC(C)=O)c(OC)c3)[C@@H](C)[C@]2(O)[C@@H]2C=C(C)C(=O)[C@@]2(O)C1
A549
  IC50: 3.71 µM
MDA-MB-231
  IC50: 6.06 µM
KB
  IC50: 8.54 µM
[1]
  IC50: 12.6 µM
MCF7
  IC50: 9.32 µM
[2]
  IC50: > 10 µM

## COc1cc(/C=C/C(=O)O[C@@H]2[C@@H](C)[C@@]3(O)[C@@H](C=C(CO)C[C@]4(O)C(=O)C(C)=C[C@@H]34)[C@@H]3C(C)(C)[C@]23OC(C)=O)ccc1O
A549
  IC50: > 10 µM
MDA-MB-231
  IC50: > 10 µM
KB
  IC50: > 10 µM
[1]
  IC50: > 10 µM
MCF7
  IC50: > 10 µM
[2]
  IC50: 0.362 µM
MT4
  CC75: > 5 µM

## CC/C=C/C/C=C/C/C=C/C/C=C/C/C=C/CCCC(=O)OCC1=C[C@H]2[C@@H]3C(C)(C)[C@]3(OC(=O)CCC/C=C/C/C=C/C/C=C/C/C=C/C/C=C/CC)[C@H](OC(=O)CCC/C=C/C/C=C/C/C=C/C/C=C/C/C=C/CC)[C@@H](C)[C@]2(O)[C@@H]2C=C(C)C(=O)[C@@]2(O)C1
A549
  IC50: > 10 µM
MDA-MB-231
  IC50: 10.1 µM
KB
  IC50: > 40 µM
[1]
  IC50: > 40 µM
MCF7
  IC50: > 10 µM
[2]
  IC50: > 10 µM
MT4
  CC75: > 5 µM

## CC1=C[C@H]2[C@@]3(O)[C@H](C)[C@@H](OC(=O)/C=C/c4ccccc4)[C@]4(OC(=O)/C=C/c5ccccc5)[C@H]([C@@H]3C=C(COC(=O)/C=C/c3ccccc3)C[C@]2(O)C1=O)C4(C)C
A549
  IC50: > 10 µM
MDA-MB-231
  IC50: > 10 µM
KB
  IC50: > 10 µM
[1]
  IC50: > 10 µM
MCF7
  IC50: > 10 µM
[2]
  IC50: > 10 µM
MT4
  CC75: > 5 µM

## C/C=C/C(=O)O[C@@H]1[C@@H](C)[C@@]2(O)[C@@H](C=C(CO)C[C@]3(O)C(=O)C(C)=C[C@@H]23)[C@@H]2C(C)(C)[C@]12OC(=O)/C=C/C
A549
  IC50: > 10 µM
MDA-MB-231
  IC50: > 10 µM
KB
  IC50: > 10 µM
[1]
  IC50: > 10 µM
MCF7
  IC50: > 10 µM
[2]
  IC50: 0.408 µM
MT4
  CC75: > 10 µM

## CCCCCCCCCCCCCCCCCCCC(=O)O[C@@H]1[C@@H](C)[C@@]2(O)[C@@H](C=C(CO)C[C@]3(O)C(=O)C(C)=C[C@@H]23)[C@@H]2C(C)(C)[C@]12OC(=O)CCCCCCCCCCCCCCCCCCC
A549
  IC50: > 10 µM
MDA-MB-231
  IC50: > 10 µM
KB
  IC50: > 10 µM
[1]
  IC50: > 10 µM
MCF7
  IC50: > 10 µM
[2]
  IC50: > 10 µM
MT4
  CC75: > 5 µM

## CC/C=C/C/C=C/C/C=C/C/C=C/C/C=C/CCCC(=O)O[C@@H]1[C@@H](C)[C@@]2(O)[C@@H](C=C(CO)C[C@]3(O)C(=O)C(C)=C[C@@H]23)[C@@H]2C(C)(C)[C@]12OC(=O)CCC/C=C/C/C=C/C/C=C/C/C=C/C/C=C/CC
A549
  IC50: > 10 µM
MDA-MB-231
  IC50: > 10 µM
KB
  IC50: > 10 µM
[1]
  IC50: > 10 µM
MCF7
  IC50: > 10 µM
[2]
  IC50: 0.11 µM
MT4
  CC75: > 5 µM

## CCCC(=O)OCC1=C[C@H]2[C@@H]3C(C)(C)[C@]3(OC(=O)CCC)[C@H](O)[C@@H](C)[C@]2(O)[C@@H]2C=C(C)C(=O)[C@@]2(O)C1
MT4
  CC75: > 5 µM

## C/C=C(/C)C(=O)O[C@]12C([C@@H]3C=C(CO)C[C@]4(O)C(=O)C(C)=C[C@H]4[C@@]3(O)[C@H](C)[C@H]1O)C2(C)C (single isomer, unassigned)
A549
  IC50: > 10 µM
MDA-MB-231
  IC50: > 10 µM
KB
  IC50: > 10 µM
[1]
  IC50: > 10 µM
MCF7
  IC50: > 10 µM
[2]
  IC50: > 10 µM
MT4
  CC75: > 5 µM

## CC1=C[C@H]2[C@@]3(O)[C@H](C)[C@@H](O)[C@]4(OC(=O)/C=C/c5ccccc5)C([C@@H]3C=C(CO)C[C@]2(O)C1=O)C4(C)C (single isomer, unassigned)
A549
  IC50: > 10 µM
MDA-MB-231
  IC50: > 10 µM
KB
  IC50: > 10 µM
[1]
  IC50: > 10 µM
MCF7
  IC50: > 10 µM
[2]
  IC50: > 10 µM
MT4
  CC75: > 5 µM

## CC1=C[C@H]2[C@@]3(O)[C@H](C)[C@@H](O)[C@]4(OC(=O)CCc5ccccc5)C([C@@H]3C=C(CO)C[C@]2(O)C1=O)C4(C)C (single isomer, unassigned)
A549
  IC50: > 10 µM
MDA-MB-231
  IC50: > 10 µM
KB
  IC50: > 10 µM
[1]
  IC50: > 10 µM
MCF7
  IC50: > 10 µM
[2]
  IC50: 5.46 µM
MT4
  CC75: > 10 µM

## COc1cc(/C=C/C(=O)O[C@]23C([C@@H]4C=C(CO)C[C@]5(O)C(=O)C(C)=C[C@H]5[C@@]4(O)[C@H](C)[C@H]2O)C3(C)C)ccc1C(C)=O (single isomer, unassigned)
A549
  IC50: > 10 µM
MDA-MB-231
  IC50: > 10 µM
KB
  IC50: > 10 µM
[1]
  IC50: > 10 µM
MCF7
  IC50: > 10 µM
[2]
  IC50: > 10 µM
MT4
  CC75: > 5 µM

## C/C=C/C(=O)OCC1=C[C@H]2C3C(C)(C)[C@]3(OC(=O)/C=C/C)[C@H](O)[C@@H](C)[C@]2(O)[C@@H]2C=C(C)C(=O)[C@@]2(O)C1 (single isomer, unassigned)
A549
  IC50: 6.22 µM
MDA-MB-231
  IC50: 6.7 µM
KB
  IC50: > 10 µM
[1]
  IC50: > 10 µM
MCF7
  IC50: > 10 µM
[2]
  IC50: > 10 µM
MT4
  CC75: > 5 µM

## C/C=C/C(=O)O[C@]12C([C@@H]3C=C(CO)C[C@]4(O)C(=O)C(C)=C[C@H]4[C@@]3(O)[C@H](C)[C@H]1O)C2(C)C (single isomer, unassigned)
A549
  IC50: > 10 µM
MDA-MB-231
  IC50: > 10 µM
KB
  IC50: > 10 µM
[1]
  IC50: > 10 µM
MCF7
  IC50: > 10 µM
[2]
  IC50: > 10 µM
MT4
  CC75: > 5 µM

## CC(=O)O[C@H]1C(=O)[C@@]2(C)[C@H]([C@H](OC(=O)c3ccccc3)[C@]3(O)C[C@H](OC(=O)[C@H](O)[C@@H](NC(=O)c4ccccc4)c4ccccc4)C(C)=C1C3(C)C)[C@]1(OC(C)=O)CO[C@@H]1C[C@@H]2O [PACLITAXEL]
MDA-MB-231
  IC50: 0.008 µM
KB
  IC50: 0.008 µM
[1]
  IC50: 2.54 µM
MCF7
  IC50: 0.015 µM

## Cc1cn([C@H]2C[C@H](N=[N+]=[N-])[C@@H](CO)O2)c(=O)[nH]c1=O [ZIDOVUDINE]
[2]
  IC50: 0.0169 µM
MT4
  CC75: > 0.37 µM
